In general, melting point refers to the temperature of the solid-liquid transition.

Structures are written as SMILES.

Here are results for 121 compounds from a melting point compilation (Tetko et al.).

With `c1ccc2c(c1)ncn2C1CCCNC1` (stereo unspecified), the melting point was 104 to 106 °C. Compound `NC(=S)c1ccc(NC(=O)CC2CCCC2)cc1` returned a melting point of 195 to 197 °C. Under `NC(=O)CN1CCC(O)CC1` stands 114 to 116 °C; under `CC1Cc2ccccc2N1C(=O)CO` (stereo unspecified), 75 to 77 °C; under `COc1ccc(CC(=O)O)cc1S(=O)(=O)N1CCOCC1`, 116 to 118 °C.

`CCOC(=O)c1sc(-c2ccc(Br)cc2)cc1N` gave a melting point of 105 to 106 °C. Then `COc1ccc(S(=O)(=O)N(C)C)cc1N`, with 192 to 194 °C. Under `O=[N+]([O-])c1cc2c(cc1Br)OCCO2` stands 167 to 169 °C; under `Nc1ncnc2ccccc12`, 264 to 266 °C; under `CCOC(=O)c1c(-c2ccc(OC)c(OC)c2)csc1N`, 223 to 225 °C. Compound `O=C(NCCCc1ccccc1)c1ccccc1O` returned a melting point of 77 to 79 °C. Then `NC(=O)C1CCN(C(=O)CCl)CC1`, with 136 to 138 °C; and `Sc1nc2cc(Cl)ccc2n1CCOc1ccccc1`, with 182 to 184 °C. Then `CS(=O)(=O)c1cc([N+](=O)[O-])c(Cl)s1`, with 148 to 150 °C. `Nc1cc(-c2ccc(Br)cc2)ncn1`: the melting point lay within 251 to 253 °C. Then `N#CC(C(=O)c1ccccc1)c1ccccc1` (stereo unspecified), with 97 to 99 °C; and `CC(=O)c1ccc(N2CCCC2)cc1O`, with 120 to 122 °C; and `O=C(O)CCS(=O)(=O)c1ccccc1Cl`, with 132 to 134 °C. Regarding `COC(=O)C(=O)CC(=O)c1cc(Cl)ccc1Cl`, the melting point lay in the range of 150 to 152 °C. `COc1cccc2sc(NC(=O)OCC(F)(F)F)nc12` showed a melting point of 133 to 135 °C. Then `CC1CCCCN1C(=O)c1ccc(N)cc1Cl` (stereo unspecified), with 186 to 188 °C; and `CS(=O)(=O)CCOc1ccc(Br)cc1`, with 130 to 132 °C; and `Nc1ccc(N2CCCCC2)c(Cl)c1`, with 53 to 55 °C. Then `Clc1cc(-n2cccn2)ccn1`, with 111 to 113 °C. `CC(C)S(=O)(=O)c1ccccc1C(=O)O` showed a melting point of 149 to 151 °C. Then `O=c1ccn2ncc(Br)c2[nH]1`, with 349 to 351 °C. Under `CN1CCC(n2ncc3cc(Br)cnc32)CC1` stands 120 to 122 °C. Then `Nc1ccccc1C(=O)Nc1ccc2c(c1)OCO2`, with 85 to 87 °C. `NC(=O)Cc1cccc(C(F)(F)F)c1` yielded a melting point of 106 to 108 °C. In turn, `O=C(c1ccc(F)cc1)c1ccc(Cl)cc1` gave a melting point of 115 to 117 °C. In the case of `C#CCN1CCCCC1C(=O)NC` (stereo unspecified), the melting point fell in the range of 116 to 118 °C. Then `COc1cc(Br)c(S(=O)(=O)Cl)cc1Cl`, with 89 to 91 °C; and `COC(=O)Nc1ccccc1C(=O)O`, with 177 to 179 °C. For the compound `Nc1nsc(N2CCCC2)n1`, the melting point was in the range of 244 to 246 °C. Under `Cc1ccc2cc(C=O)c(Cl)nc2c1` stands 148 to 150 °C; under `COc1ccc(-c2nnc(S)n2N)c(OC)c1`, 200 to 202 °C; under `O=Cc1sc(N2CCCCC2)nc1-c1cccs1`, 117 to 119 °C. Then `Oc1cccc(-c2nnc[nH]2)c1`, with 192 to 194 °C; and `NC(C(=O)O)(c1cc(F)cc(F)c1)C(F)(F)F` (stereo unspecified), with 121 to 123 °C. In the case of `CCOC(=O)c1cc(CC)sc1N`, the melting point fell in the range of 69 to 71 °C. Then `O=C(O)CC1c2ccccc2Oc2ccccc21`, with 153 to 155 °C; and `COc1ccc(C(=O)O)cc1S(=O)(=O)N1CCCCC1C` (stereo unspecified), with 175 to 180 °C. Then `COc1ccc(OC)c(C(F)(F)C(=O)O)c1`, with 81 to 83 °C; and `O=C(O)c1ccc(CO)o1`, with 164 to 166 °C; and `CNCc1cccc(O)c1`, with 144 to 146 °C.

For the compound `O=C(O)c1ccc(CN2CCC(O)CC2)cc1`, the melting point fell in the range of 219 to 221 °C.

Regarding `O=C1CC2(CCOCC2)CN1`, the melting point was 132 to 134 °C. Then `CN1CCN(c2ccc(N)nc2)CC1`, with 119 to 121 °C; and `CCc1c(C(=O)O)cnn1-c1ccc(Br)cc1`, with 209 to 211 °C.

For the compound `CC(=O)c1c(C)[nH]c(C(=O)O)c1C`, the melting point was 205 to 207 °C.

As for `O=[N+]([O-])c1ccc(-c2c[nH]cn2)cc1`, the melting point lay in the range of 224 to 226 °C. Under `O=C(O)c1cc2ccccc2c(Cl)n1` stands 202 to 204 °C; under `O=C(O)CC1Sc2ccc(Cl)cc2NC1=O` (stereo unspecified), 240 to 242 °C; under `O=C(O)c1ccc(N2CCOCC2)c(F)c1`, 220 to 222 °C. `NS(=O)(=O)c1cccc2c1OCCO2` registered a melting point of 173 to 175 °C. Then `O=C(O)c1cc(S)ccc1[N+](=O)[O-]`, with 234 to 236 °C. Under `OC1CCc2c(F)cccc21` (stereo unspecified) stands 59 to 61 °C. The compound `Cc1cc(Br)c(C(=O)O)cn1` gave a melting point of 119 to 121 °C. Under `COc1cc(N)ccc1S(=O)(=O)Nc1ccc(Cl)cc1Cl` stands 199 to 201 °C; under `CC(=O)c1ccc2ccccc2n1`, 47 to 49 °C.

Compound `CC(C)(C)OC(=O)NCC(C(=O)O)c1ccccc1` (stereo unspecified) displayed a melting point of 144 to 146 °C. As to `Cc1ccc(-c2nnc(N)[nH]2)s1`, the melting point is 222 to 224 °C.

In the case of `Cc1n[nH]cc1N`, the melting point was 93 to 95 °C. Under `O=C(O)C(=Cc1ccc(F)cc1)c1cccs1` stands 185 to 187 °C; under `NS(=O)(=O)c1ccc2c(c1)CCC(=O)N2`, 263 to 265 °C; under `NNC(=S)NCc1ccc(F)cc1`, 140 to 142 °C. Turning to `CC(=CC(=O)O)c1cccc(C(F)(F)F)c1`, the melting point is 135 to 137 °C. Regarding `O=c1[nH]c2ccc(S(=O)(=O)Cl)cc2o1`, the melting point was 151 to 155 °C.

`N#Cc1cc(C(=O)c2ccccc2O)cn(-c2ccccn2)c1=O` displayed a melting point of 147 to 150 °C. Under `O=C(O)c1nn(Cc2ccccc2)c(=O)c2ccccc12` stands 199 to 201 °C; under `Cc1ccc(NC(=O)NCC2CCCNC2)cc1` (stereo unspecified), 161 to 163 °C; under `NCc1ccc(NC(=O)CN2CCc3ccccc32)cc1`, 126 to 128 °C. On to `NCC(c1cccs1)c1c[nH]c2ccccc12` (stereo unspecified), for which the melting point fell in the range of 145 to 147 °C. Then `O=C(O)c1cc(-c2ccc(F)cc2)nc2onc(C3CC3)c12`, with 229 to 231 °C; and `O=C(O)c1cc2c(Cl)c(Cl)ccc2[nH]1`, with 281 to 283 °C. Then `NC(=S)COc1ccc(F)cc1`, with 120 to 122 °C; and `O=C(Nc1cccc2cnccc12)OCC(F)(F)F`, with 181 to 183 °C; and `CCOC(=O)c1c(N)sc2c1CCN(CC)C2`, with 83 to 87 °C. Then `N#Cc1ccc(S(N)(=O)=O)cc1C(F)(F)F`, with 195 to 197 °C; and `CC(C)(C)C(=O)N1CCC(=O)CC1`, with 94 to 96 °C.

On to `Cc1csc(C(O)C(F)(F)F)n1` (stereo unspecified), for which the melting point was 122 to 124 °C. For the compound `CN1CCN(C(=O)Cc2cccc(N)c2)CC1`, the melting point was 138 to 140 °C. Under `CC(=O)Nc1ccccc1C=O` stands 67 to 69 °C; under `CCOC(=O)/C(C#N)=C/Nc1ccc(Br)cc1`, 149 to 151 °C; under `N#Cc1ccc(N2CCN(c3ccccc3)CC2)nc1`, 131 to 133 °C.

Compound `Cn1c(=O)c2ccccc2n2c(CCl)nnc12` gave a melting point of 228 to 229 °C.

For the compound `Cc1cc(NC(=O)CSCC(N)C(=O)O)no1` (stereo unspecified), the melting point lay in the range of 204 to 206 °C. `CNc1cccc2ncccc12` showed a melting point of 125 to 127 °C.

`Cc1cccc(OCCCC(=O)O)c1`: the melting point is 55 to 57 °C. Under `O=C(O)C1CCCN(C2=NS(=O)(=O)c3ccccc32)C1` (stereo unspecified) stands 205 to 207 °C; under `O=C1Nc2ccc(Br)cc2C1=NO`, 268 to 270 °C. Then `Cc1ccc2[nH]cnc2c1C`, with 169 to 171 °C; and `CCC(Nc1c([N+](=O)[O-])c(C)nn1C)C(=O)O` (stereo unspecified), with 129 to 131 °C.

Consider `Cc1nc(CSc2ccc(C(=O)O)cc2)cs1`, for which the melting point lay in the range of 87 to 90 °C. Then `O=C(c1c[nH]c2ccccc12)N1CCCC1`, with 229 to 231 °C. `O=C(O)c1cc(Br)cnc1S`: the melting point is 239 to 241 °C. Then `O=C(CCCl)NC(=O)NCC(F)(F)F`, with 145 to 147 °C; and `O=C(O)c1cnn2c1CCCC2`, with 214 to 216 °C; and `Nc1ccc(-c2nc(C3CC3)no2)cc1Cl`, with 97 to 99 °C. Under `O=C(O)c1n[nH]c2c1CCCC2` stands 249 to 251 °C; under `NNC(=O)c1csc(N2CCOCC2)n1`, 168 to 170 °C. The compound `OCc1csc(-c2ccccn2)n1` had a melting point of 95 to 97 °C. Under `COc1ccccc1NC(=O)c1ccc(NC(=O)CCCl)cc1` stands 193 to 195 °C. Under `COC(=O)c1ccc(Br)s1` stands 60 to 62 °C; under `CN(C)c1nc(=N)cc[nH]1`, 149 to 151 °C.

In turn, `O=C(O)c1cc(-c2ccco2)nc2ccccc12` returned a melting point of 209 to 211 °C.

`N#Cc1ccc(N=C=S)cc1Cl` displayed a melting point of 75 to 77 °C. In the case of `O=C(O)c1ccc(N2C(=O)CSC2=S)cc1`, the melting point lay within 281 to 283 °C. For `O=C(O)c1cc(-c2cccs2)nc2ccccc12`, the melting point is 199 to 201 °C. Under `O=C1CC(CO)CN1CCc1ccccc1` (stereo unspecified) stands 65 to 67 °C; under `Cc1cc(C(=O)O)c2[nH]ncc2c1`, 286 to 288 °C; under `O=C(O)c1cccc(S(=O)(=O)NCc2ccco2)c1`, 190 to 192 °C. Then `C=CCN=c1nn[nH]n1C`, with 66 to 68 °C; and `c1nc(C2CCCCN2)n[nH]1` (stereo unspecified), with 104 to 106 °C. Then `Cc1nc(-c2cc(C(=O)O)cs2)cs1`, with 226 to 228 °C; and `CNCC(O)COc1ccc(C(F)(F)F)cc1` (stereo unspecified), with 85 to 87 °C.

Compound `CS(=O)(=O)CCC(Cc1cccc(Br)c1)C(=O)O` (stereo unspecified) gave a melting point of 61 to 63 °C. Under `O=C(O)C1=CCCCO1` stands 66 to 68 °C; under `CS(=O)(=O)Cc1cccc(C(=O)O)c1`, 188 to 190 °C. Then `Nc1cccc(CS(N)(=O)=O)c1`, with 144 to 146 °C.

For `Cc1ccc(-n2nc(C(=O)O)ccc2=O)cc1Cl`, the melting point was 240 to 242 °C.
